Reference: article PMC6387142, “Multi-Residue Method for the Analysis of Stilbene Estrogens in Milk” (International Journal of Molecular Sciences, 2019)

Molecular target: T1, estrogen receptor α ligand binding domain (ER-LBD) (Homo sapiens, UniProt P03372)
T1 construct: gene ESR1
T1 sequence (P03372 311-547 limits assumed): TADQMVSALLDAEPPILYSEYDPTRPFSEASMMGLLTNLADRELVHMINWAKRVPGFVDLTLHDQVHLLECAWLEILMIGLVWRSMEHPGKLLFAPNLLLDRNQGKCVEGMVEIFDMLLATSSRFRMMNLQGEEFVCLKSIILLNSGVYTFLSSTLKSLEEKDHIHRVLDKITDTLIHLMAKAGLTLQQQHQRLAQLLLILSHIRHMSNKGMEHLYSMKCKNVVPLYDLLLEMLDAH
Assay: competitive fluorescence polarization, displacement of coumestrol from purified ER-LBD

SMILES | IC50
C/C=C(/C(=C/C)c1ccc(O)cc1)c1ccc(O)cc1 [dienestrol] | 12.9 nM
CC[C@H](c1ccc(O)cc1)[C@@H](CC)c1ccc(O)cc1 [hexestrol] | 9.27 nM
